Source: patent US5185257A, “Thermostable xanthine oxidase from Arthrobacter luteus” (Toyo Boseki Kabushiki Kaisha, priority 1990, dated 1993)
Read-outs that look alike come from different tables or passages of the source.

What was measured:
[1] = test system: Arthrobacter luteus ATCC 21606 thermostable xanthine oxidase (enzyme of the invention); experiment: km value of the thermostable xanthine oxidase of the invention; assay type: biochemical
Method: (§1) 50 mM tris-hydrochloric acid buffer (2.9 ml) and 0.1 ml of a 10 mM aqueous solution of xanthine are mixed, and this mixture is pre-heated at 37° C. After 0.01 ml of enzyme solution is added and gently mixed, the increase of absorbance at 293 nm per minute is determined using a spectrophotometer thermostated at 37° C. with distilled water as the control. The xanthine oxidase activity is expressed on the assumption that the amount of enzyme which produces 1 μmol of uric acid per minute under the conditions described above is taken as 1 unit (U).
as §1, with “After” for “50 mM tris-hydrochloric acid buffer (2.9 ml) and 0.1 ml of a 10 mM aqueous solution of xanthine are mixed, and this mixture is pre-heated at 37° C. After”, “550” for “293”, “quinone imine pigment” for “uric acid”

[2] = test system: xanthine oxidase derived from Enterobacter cloacae; experiment: km value of the comparative xanthine oxidase from Enterobacter cloacae; assay type: biochemical; conditions: Table 1, Comparative Example
From the text: Determinations were made for conventional xanthine oxidase derived from milk and xanthine oxidase derived from Enterobacter cloacae.

SMILES | Km ([1]; read-out: km value for hypoxanthine, pH 7.5) | Km ([1]; read-out: km value hypoxanthine, Table 1, enzyme of Example 1) | Km ([2]; read-out: km value hypoxanthine) | Km ([1]; Table 1, enzyme of Example 1, read-out: km value xanthine) | Km ([1]; pH 7.5, read-out: km value for xanthine) | Km ([2]; read-out: km value xanthine)
O=c1[nH]cnc2nc[nH]c12 [hypoxanthine] | ~52 µM | 52 µM | 83 µM | – | – | –
O=c1[nH]c(=O)c2[nH]cnc2[nH]1 [xanthine] | – | – | – | 54 µM | ~54 µM | 73 µM
